Assay [1] has as its system SW480. Put plainly: Cytotoxicity against human SW480 cells after 72 hrs by MTT assay. In kind it is functional, cell-based. To be noted: SW480, 72 h. (In general: Tetrazolium dyes change colour on reduction, which living cells bring about.)
Assay [2] deals with SW480. Nature of the assay: Cell cycle arrest in human SW480 cells assessed as accumulation at G2/M phase at 1 uM after 48 hrs by propidium iodide staining-based flow cytometry (reference value: 13.99 +/- 0.35%). In kind it is functional. (In flow cytometry, cells or beads pass a laser one at a time.)
The nature of assay [3]: Ratio of 5-fluorouracil IC50 to compound IC50 for human MDA-MB-435S cells. In kind it is functional.
Assay [4] in a line: Cytotoxicity against human LM7 cells after 72 hrs by MTT assay. It is filed as functional, cell-based. The following applies: LM7, 72 h.
Assay [5] can be described thus: Cytotoxicity against human MDA-MB-435S cells after 72 hrs by MTT assay. In kind it is functional, cell-based.
Assay [6] concerns SW480. Put plainly: Cell cycle arrest in human SW480 cells assessed as accumulation at S phase at 1 uM after 48 hrs by propidium iodide staining-based flow cytometry (reference value: 14.01 +/- 0.86%). In kind it is functional.
In assay [7] the test system is HeLa. Nature of the assay: Cytotoxicity against human HeLa cells after 72 hrs by MTT assay. In kind it is functional, cell-based.
In assay [8] the test system is SW480. Put plainly: Cell cycle arrest in human SW480 cells assessed as accumulation at S phase at 0.8 uM after 48 hrs by propidium iodide staining-based flow cytometry (reference value: 14.01 +/- 0.86%). In kind it is functional.
Assay [9] deals with SW480. Put plainly: Cell cycle arrest in human SW480 cells assessed as accumulation at G0/G1 phase at 1 uM after 48 hrs by propidium iodide staining-based flow cytometry (reference value: 72.00 +/- 4.30%). In kind it is functional.
Assay [10] has as its system HeLa. Put plainly: Ratio of 5-fluorouracil IC50 to compound IC50 for human HeLa cells. It is filed as functional.
The subject of assay [11] is SW480. Put plainly: Cell cycle arrest in human SW480 cells assessed as accumulation at G2/M phase after 48 hrs by propidium iodide staining-based flow cytometry. In kind it is functional.
Assay [12] relates to SW480. Nature of the assay: Cell cycle arrest in human SW480 cells assessed as accumulation at G0/G1 phase at 0.8 uM after 48 hrs by propidium iodide staining-based flow cytometry (reference value: 72.00 +/- 4.30%). It is filed as functional.
Assay [13] in a line: Ratio of 5-fluorouracil IC50 to compound IC50 for human LM7 cells. In kind it is functional.
The subject of assay [14] is HEp-2. Put plainly: Ratio of 5-fluorouracil IC50 to compound IC50 for human Hep2 cells. In kind it is functional.
Assay [15] concerns SW480. Nature of the assay: Cell cycle arrest in human SW480 cells assessed as accumulation at S phase at 1.2 uM after 48 hrs by propidium iodide staining-based flow cytometry (reference value: 14.01 +/- 0.86%). It is filed as functional.
For assay [16], the system named is SW480. Nature of the assay: Cell cycle arrest in human SW480 cells assessed as accumulation at G0/G1 phase at 1.2 uM after 48 hrs by propidium iodide staining-based flow cytometry (reference value: 72.00 +/- 4.30%). In kind it is functional.
The test system of assay [17] is SW480. Nature of the assay: Cell cycle arrest in human SW480 cells assessed as accumulation at G2/M phase at 0.8 uM after 48 hrs by propidium iodide staining-based flow cytometry (reference value: 13.99 +/- 0.35%). It is filed as functional.
Assay [18] concerns SW480. Nature of the assay: Cell cycle arrest in human SW480 cells assessed as accumulation at G2/M phase at 1.2 uM after 48 hrs by propidium iodide staining-based flow cytometry (reference value: 13.99 +/- 0.35%). In kind it is functional.
For assay [19], the system named is MCF7. Nature of the assay: Ratio of 5-fluorouracil IC50 to compound IC50 for human MCF7 cells. It is filed as functional.
Assay [20] has as its system MCF7. Nature of the assay: Cytotoxicity against human MCF7 cells after 72 hrs by MTT assay. It is filed as functional, cell-based. The following applies: MCF7, 72 h.
Assay [21] relates to SW480. Put plainly: Ratio of 5-fluorouracil IC50 to compound IC50 for human SW480 cells. In kind it is functional.
Assay [22] deals with HEp-2. Nature of the assay: Cytotoxicity against human Hep2 cells after 72 hrs by MTT assay. In kind it is functional, cell-based. To be noted: HEp-2, 72 h.

pIC50: −log10 of the molar value.

Consider `Cc1nnc(SCc2coc3ccccc3c2=O)s1`, for which the pIC50 (in general, the negative decadic logarithm of the IC50, by convention in mol/L) is 6.00 with SW480 [1]; 6.37 in assay [4]; 6.20 in assay [5]; 5.64 with HeLa [7]; 5.17 in the assay with MCF7 [20]; 5.54 in the assay on HEp-2 [22]. Also, the Activity with SW480 [2] was 26.74%; with SW480 [6], 18.27%; in the assay with SW480 [8], 15.47%; with SW480 [9] it was 54.99%; with SW480 [11], “Dose-dependent effect”; in the assay on SW480 [12], 62.5%. Besides, the Activity in the assay with SW480 [15] turned out to be 19.13%; in the assay with SW480 [16], 42.84%; in the assay with SW480 [17] it was 22.03%; in the assay on SW480 [18] it was 38.03%. In addition, the “Ratio IC50” value in [3] amounted to 8.3; in the assay on HeLa [10], 0.7; in [13] it was 6.6; with HEp-2 [14], 33.9; with MCF7 [19], 0.5; in the assay with SW480 [21], 2.3.

The values are drawn from ChEMBL document CHEMBL2417443, “Efficient synthesis and antiproliferative activity of novel thioether-substituted flavonoids” (Eur J Med Chem, 2013).
